According to patent US11225503B2, “Crystobactamides” (HELMHOLTZ-ZENTRUM FÜR INFEKTIONSFORSCHUNG GMBH, priority 2013, dated 2022):
≈ marks a conversion by molar mass, not a printed value. Bridge positions count the residues as written; N and C are the ends. Square brackets hold non-standard residues; d marks the D form. Peptide text beside a SMILES is read from it. * marks the point of attachment. Ileψ(thiazoline)Cys = CC[C@H](C)[C@H](N)C1=N[C@H](C(=O)*)CS1; dOrn = NCCC[C@@H](N)C(=O)O

Columns and labels:
Type in all cases: cell-based
[1] = test system: Cystobacter velatus MCy8071; experiment: Antibiotic resistance of the producer strain; conditions: final concentration of all antibiotics 50 μg ml^−1
Protocol: MCy8071 is resistant against the following antibiotics: ampicillin, gentamycin, hygromycin, polymycin, bacitracin, spectinomycin, neomycin, and fusidinic acid. Weak growth is possible with cephalosporin and kasugamycin and no growth is possible with thiostrepton, trimethoprin, kanamycin, and oxytetracycline (final concentration of all antibiotics was adjusted to 50 μg ml^−1).

[2] = test system: Escherichia coli DSM-1116; experiment: Susceptibility testing, MIC microdilution; conditions: Escherichia coli DSM-1116
Protocol: (§1) Bacterial wildtype strains used in susceptibility assays were either part of our strain collection or purchased from the German Collection of Microorganisms and Cell Cultures (DSMZ) or from the American Type Culture Collection (ATCC). E. coli strain WT^[6] and E. coli mutants were kindly provided by Prof. Dr. P. Heisig, Pharmaceutical Biology and Microbiology, University of Hamburg.
(§2) MIC values were determined in microdilution assays. Overnight cultures were diluted in the appropriate growth medium to achieve an inoculum of 10^4-10^6 cfu/mL. Yeasts were grown in Myc medium (1% phytone peptone, 1% glucose, 50 mM HEPES, pH 7.0), S. pneumonia and E. faecalis in tryptic soy broth (TSB: 1.7% peptone casein, 0.3% peptone soymeal, 0.25% glucose, 0.5% NaCl, 0.25% K2HPO4; pH 7.3); M. smegmatis in Middlebrook 7H9 medium supplemented with 10% Middlebrook ADC enrichment and 2 ml/l glycerol). All other listed bacteria were grown in Müller-Hinton broth (0.2% beef infusion solids, 1.75% casein hydrolysate, 0.15% starch, pH 7.4). Cystobactamides and reference drugs were added directly to the cultures in sterile 96-well plates as duplicates and serial dilutions were prepared. Microorganisms were grown on a microplate shaker (750 rpm, 30-37° C., 18-48 h), except S. pneumonia, which was grown at non-shaking conditions (37° C., 5% CO2, 18 h). Growth inhibition was assessed by visual inspection and the MIC was defined as the lowest concentration of compound that inhibited visible growth.

[3] = test system: Escherichia coli DSM-26863 (tolC3); experiment: Susceptibility testing, MIC microdilution; conditions: Escherichia coli DSM-26863 (tolC3)
Protocol: as §1, §2

[4] = test system: Pseudomonas aeruginosa PA14; experiment: Susceptibility testing, MIC microdilution
Protocol: as §1, §2

[5] = test system: E. coli strain WT III (marR Δ74 bp); experiment: Susceptibility of mutant E. coli strains, MIC
Protocol: as §1, §2

[6] = test system: Chinese hamster ovary CHO-K1 cells; experiment: in vitro
Protocol: Human HCT-116 colon carcinoma cells (CCL-247) were obtained from the American Type Culture Collection (ATCC) and Chinese hamster ovary CHO-K1 cells (ACC-110) were obtained from the German Collection of Microorganisms and Cell Cultures (DSMZ). Both cell lines were cultured under the conditions recommended by the respective depositor. Primary HUVEC (human umbilical vein endothelial cells; single donor) were purchased from PromoCell (Heidelberg, Germany) and cultured in Endothelial Cell Growth Medium (PromoCell) containing the following supplements: 2% FCS, 0.4% ECGS, 0.1 ng/ml EGF, 1 ng/ml bFGF, 90 μg/ml heparin, 1 μg/ml hydrocortisone.
(§3) Cells were seeded at 6×10^3 cells per well of 96-well plates (Corning CellBind®) in complete medium (180 μl) and directly treated with cystobactamides dissolved in methanol in a serial dilution. Compound were tested in duplicate for 5 d, as well as the internal solvent control. After 5 d incubation, 5 mg/ml MTT in PBS (20 μL) was added per well and it was further incubated for 2 h at 37° C.[7] The medium was then discarded and cells were washed with PBS (100 μl) before adding 2-propanol/10N HCl (250:1, v/v; 100 μl) in order to dissolve formazan granules. The absorbance at 570 nm was measured using a microplate reader (EL808, Bio-Tek Instruments Inc.).

[7] = test system: several microorganisms and cell lines; experiment: Biological evaluation, summary statements over the MIC and cytotoxicity tests; conditions: A. baumannii and P. aeruginosa
Protocol: as §3, §2

CC1(C)S[C@@H]2[C@H](NC(=O)[C@H](N)c3ccccc3)C(=O)N2[C@H]1C(=O)O [ampicillin]
growth of strain MCy8071 in presence of the antibiotic [1]: resistant

polymycin
growth of strain MCy8071 in presence of the antibiotic [1]: resistant

CC[C@H](C)[C@H](N)C1=N[C@H](C(=O)N[C@@H](CC(C)C)C(=O)N[C@H](CCC(=O)O)C(=O)N[C@H](C(=O)N[C@H]2CCCCNC(=O)[C@H](CC(N)=O)NC(=O)[C@@H](CC(=O)O)NC(=O)[C@H](Cc3cnc[nH]3)NC(=O)[C@@H](Cc3ccccc3)NC(=O)[C@H]([C@@H](C)CC)NC(=O)[C@@H](CCCN)NC2=O)[C@@H](C)CC)CS1 [bacitracin] ({Ileψ(thiazoline)Cys}-L[dE]IK[dOrn]I[dF]H[dD]N; lactam 4-C)
growth of strain MCy8071 in presence of the antibiotic [1]: resistant

COc1cc(C(=O)O)ccc1NC(=O)c1ccc(NC(=O)c2ccc(NC(=O)C(NC(=O)c3ccc(NC(=O)c4ccc([N+](=O)[O-])cc4)cc3)C(OC)C(N)=O)cc2)c(OC(C)C)c1O (stereo not drawn) [cystobactamide G]
MIC [2]: 0.9 µg/mL (≈ 1.01 µM) | MIC [3]: 0.9 µg/mL (≈ 1.01 µM) | MIC [4]: 7.1 µg/mL (≈ 7.96 µM) | MIC, in words ([5]; E. coli WT III): in the μg/ml range | MIC ([5]; Escherichia coli WTIII [marRΔ74bp]): 3.6 µg/mL (≈ 4.04 µM) | GI50 [6]: 37 to 111 µM | inhibition of pathogenic Gram-negative strains A. baumannii and P. aeruginosa (MIC range) [7]: low μg/ml range

CC(=O)O[C@H]1C[C@@]2(C)[C@@H](C[C@@H](O)[C@H]3[C@@]4(C)CC[C@@H](O)[C@@H](C)[C@@H]4CC[C@@]32C)/C1=C(\CCC=C(C)C)C(=O)O [fusidinic acid]
growth of strain MCy8071 in presence of the antibiotic [1]: resistant

C[C@H]1O[C@H](O[C@H]2[C@H](O)[C@@H](O)[C@@H](O)[C@H](O)[C@@H]2O)[C@@H](N)C[C@@H]1NC(=N)C(=O)O [kasugamycin]
growth of strain MCy8071 in presence of the antibiotic [1]: Weak growth
